We go through one compound from publication PMC4133868 (BMB Reports, 2013).

As usually defined, the AC50 is the concentration at which the activity in the assay is half-maximal. Low values mean activity at low concentration, high ones activity only at high concentration. The Kd is the equilibrium constant for the complex coming apart.

For assay [1], the target named is T1, f-bCblC (Bos taurus, UniProt Q5E9C8).
T1 sequence (Q5E9C8 1-280): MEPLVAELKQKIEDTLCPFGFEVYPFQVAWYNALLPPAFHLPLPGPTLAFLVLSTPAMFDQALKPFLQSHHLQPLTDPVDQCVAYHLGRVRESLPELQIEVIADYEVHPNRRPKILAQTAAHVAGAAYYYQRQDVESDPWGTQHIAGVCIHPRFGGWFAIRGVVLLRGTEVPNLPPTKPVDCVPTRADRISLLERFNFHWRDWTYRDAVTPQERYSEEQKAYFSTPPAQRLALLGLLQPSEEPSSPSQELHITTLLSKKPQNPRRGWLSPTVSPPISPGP
Put plainly: biochemical.

Assay [2] has as its target T2, t-bCblC (Bos taurus, UniProt Q5E9C8).
T2 sequence (Q5E9C8 1-244): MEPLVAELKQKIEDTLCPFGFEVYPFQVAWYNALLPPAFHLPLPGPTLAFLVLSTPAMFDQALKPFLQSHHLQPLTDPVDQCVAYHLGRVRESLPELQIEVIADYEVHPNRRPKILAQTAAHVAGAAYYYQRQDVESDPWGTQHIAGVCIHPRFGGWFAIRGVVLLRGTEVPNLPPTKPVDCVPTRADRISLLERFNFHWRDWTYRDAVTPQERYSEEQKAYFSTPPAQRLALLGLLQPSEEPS

The target in assay [3] is T1, f-bCblC.
Assay [4] addresses T2, t-bCblC. Put plainly: biochemical.
The target in assay [5] is T2, t-bCblC. The assay is described as follows: Isothermal titration calorimetry. Format: binding, bovine. (In general: Isothermal titration calorimetry measures the heat released or taken up as one component is titrated into another.)
For assay [6], the target named is T1, f-bCblC. The note with it: read-out: Kd of GSH for f-bCblC (ITC); cited from earlier work.
[7] abbreviates: hyperbolic fit of ΔTm vs GSH concentration.

For `N[C@@H](CCC(=O)N[C@@H](CS)C(=O)NCC(=O)O)C(=O)O` [GSH, glutathione], the AC50 was 3100 ± 300 µM at f-bCblC [1] and 2800 ± 300 µM on t-bCblC [4]. In addition, the “melting temperature Tm of t-bCblC in the presence of GSH” value on t-bCblC [2] (10 mM GSH, Tm without GSH 41.5 ± 0.3℃) stood at 45.2 ± 0.3 °C. Moreover, on t-bCblC [2] (setting [7]), the “maximal ΔTm (ΔTm max) of t-bCblC” value is 5.2 ± 0.2 °C. Also, at f-bCblC [3] (10 mM GSH, Tm without GSH 42.1 ± 0.4℃), the “melting temperature Tm of f-bCblC in the presence of GSH” value came out at 44.2 ± 0.3 °C. On f-bCblC [3] (setting [7]), the “maximal ΔTm (ΔTm max) of f-bCblC” value turned out to be 2.8 ± 0.3 °C. The Kd was 206 ± 35 µM on t-bCblC [5] and 355 ± 40 µM at f-bCblC [6].
